From US20240041042A1, “1-(PYRIDYL)-5-AZINYLPYRAZOLE DERIVATIVES, AND THEIR USE FOR CONTROL OF UNDESIRED PLANT GROWTH” (Bayer Aktiengesellschaft, priority 2020, published 2024)

What was measured:
Type in all cases: in vivo
[1] = test system: Echinochloa crus-galli (ECHCG); assay: Post-emergence herbicidal action against ECHCG
How it was run: (§1)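 Values are percent visual activity (0% like control, 100% plants dead) after about 3 weeks in the greenhouse. Treatment: post-emergence spray at one-leaf stage, 600 l/ha spray volume, 0.5% additive, doses 320 g/ha or lower.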

Setaria viridis (SETVI) = assay: Post-emergence herbicidal action against SETVI
How it was run: as §1

[2] = test system: Matricaria inodora (MATIN); assay: Pre-emergence herbicidal action against MATIN
How it was run: (§2)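 Pre-emergence soil-surface spray, WP/EC formulation, 0.5% additive, 600 l/ha water, rates of 320 g/ha or lower. Greenhouse, ~3 wk. Visual score, % of untreated control (100% = plants dead, 0% = like control).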

[3] = test system: Alopecurus myosuroides (ALOMY); assay: Post-emergence herbicidal action against ALOMY; conditions: visual rating about 3 weeks after treatment vs untreated controls (100% = plants have died, 0% = like control plants)
How it was run: as §1

[4] = test system: Pharbitis purpurea (PHBPU); assay: Post-emergence herbicidal action against PHBPU
How it was run: as §1

Avena fatua (AVEFA) [5] = assay: Pre-emergence herbicidal action against AVEFA; conditions: visual scoring after about 3 weeks vs untreated controls
How it was run: as §2

[6] = test system: Alopecurus myosuroides (ALOMY); assay: Pre-emergence herbicidal action against ALOMY; conditions: scored visually after about 3 weeks, 100% = plants have died
How it was run: as §2

[7] = test system: Polygonum convolvulus (POLCO); assay: Pre-emergence herbicidal action against POLCO
How it was run: as §2

Avena fatua (AVEFA) [8] = assay: Post-emergence herbicidal action against AVEFA; conditions: visual rating about 3 weeks after treatment
How it was run: as §1

[9] = test system: Amaranthus retroflexus (AMARE); assay: Pre-emergence herbicidal action against AMARE; conditions: visual scoring after about 3 weeks vs untreated controls
How it was run: as §2

SMILES	Post-emergence action against ECHCG in % ([1]; dosage 80 g/ha) [%]	Post-emergence action against ECHCG in % ([1]; dosage 320 g/ha) [%]	Post-emergence action against SETVI in % (Setaria viridis (SETVI); dosage 80 g/ha) [%]	Post-emergence action against SETVI in % (Setaria viridis (SETVI); dosage 320 g/ha) [%]	Pre-emergence action against MATIN in % ([2]; dosage 80 g/ha) [%]	Pre-emergence action against MATIN in % ([2]; dosage 320 g/ha) [%]	Post-emergence action against ALOMY in % ([3]; 80 g/ha) [%]	Post-emergence action against ALOMY in % ([3]; 320 g/ha) [%]	Post-emergence action against PHBPU in % ([4]; dosage 80 g/ha) [%]	Post-emergence action against PHBPU in % ([4]; dosage 320 g/ha) [%]	Pre-emergence action against AVEFA in % (Avena fatua (AVEFA) [5]; 320 g/ha) [%]	Pre-emergence action against ALOMY ([6]; 80 g/ha) [%]	Pre-emergence action against ALOMY ([6]; 320 g/ha) [%]	Pre-emergence action against POLCO in % ([7]; dosage 80 g/ha) [%]	Pre-emergence action against POLCO in % ([7]; dosage 320 g/ha) [%]	Post-emergence action against AVEFA in % (Avena fatua (AVEFA) [8]; 80 g/ha) [%]	Post-emergence action against AVEFA in % (Avena fatua (AVEFA) [8]; 320 g/ha) [%]	Pre-emergence action against AMARE in % ([9]; 80 g/ha) [%]	Pre-emergence action against AMARE in % ([9]; 320 g/ha) [%]	Pre-emergence action against AVEFA in % (Avena fatua (AVEFA) [5]; 80 g/ha) [%]
COC(=O)C(C)COC(=O)[C@@H](C)Oc1nn(-c2ccccn2)c(-c2cncc(F)c2)c1Cl (stereo partly drawn) [Example I-198]	80	80	80	80	90	90	80	80	80	90	90	80	90	90	90	80	80	100	100	
COC(=O)COc1nn(-c2ncccc2F)c(-c2ccc(F)nc2)c1Br [Example I-07]		90	90	90	80	100	90	100	80	80	90	90	100	90	100		90	90	90	
CCOC(=O)COc1nn(-c2ccccn2)c(-c2ccc(F)nc2)c1Cl [Example I-85]	90	90	90	100	100	100		100	90	90	90	80	90		100		100	90	100	
COC(=O)[C@@H](C)Oc1nn(-c2nc(F)ccc2F)c(-c2cncc(F)c2)c1C1CC1 [Example I-171]	80	80	90	90	90	90	90	90	80	90	100	100	100	90	90	90	90	100	100	90
